Assay results from US20080161305A1, “C-Met Modulators and Methods of Use” (EXELIXIS, INC., priority 2005, published 2008).
pIC50: −log10 of the molar value.

Columns and labels:
Format in all cases: biochemical
[1] = molecular target: c-Met (baculovirus expressed human c-Met kinase domain P948-S1343) (Homo sapiens, UniProt P08581); experiment: c-Met Luciferase-Coupled Chemiluminescent Kinase assay (LCCA); details: 1 μM ATP, 10 nM c-Met
Procedure: (§1) Kinase activity and compound inhibition are investigated using one or more of the three assay formats described below. The ATP concentrations for each assay are selected to be close to the Michaelis-Menten constant (KM) for each individual kinase. Dose-response experiments are performed at 10 different inhibitor concentrations in a 384-well plate format. The data are fitted to the following four-parameter equation:
(§2) Y=Min+(Max−Min)/(1+(X/IC50)̂H)
(§3) where Y is the observed signal, X is the inhibitor concentration, Min is the background signal in the absence of enzyme (0% enzyme activity), Max is the signal in the absence of inhibitor (100% enzyme activity), IC50 is the inhibitor concentration at 50% enzyme inhibition and H represents the empirical Hill's slope to measure the cooperativity. Typically H is close to unity. c-Met Assay
(§4) c-Met biochemical activity was assessed using a Luciferase-Coupled Chemiluminescent Kinase assay (LCCA) format as described above. Again, kinase activity was measured as the percent ATP remaining following the kinase reaction. Remaining ATP was detected by luciferase-luciferin-coupled chemiluminescence. […] The mixture is incubated at ambient temperature for 2 hours after which 20 uL luciferase-luciferin mix is added and the chemiluminescent signal read using a Wallac Victor^2 reader. […]

[2] = molecular target: T1, KDR (baculovirus expressed human KDR kinase domain D807-V1356) (Homo sapiens, UniProt P35968); experiment: KDR Luciferase-Coupled Chemiluminescent Kinase assay (LCCA); details: 3 μM ATP, 5 nM KDR
T1 construct: human KDR kinase domain D807-V1356; made in house
Procedure: as §1, §2, §3
as §4, with “KDR biochemical” for “c-Met biochemical”, “(LCCA) format. Kinase” for “(LCCA) format as described above. Again, kinase”, “for 4” for “for 2”

c-Kit kinase = c-Kit kinase (Homo sapiens, UniProt P10721); experiment: c-Kit AlphaScreen assay
Procedure: as §1, §2, §3
c-Kit biochemical activity was assessed using AlphaScreen™ (Perkin Elmer) technology, described above. Test compounds, ATP, biotinylated poly(Glu, Tyr) and c-Kit kinase were combined in a volume of 20 μL in a 384-well white, medium binding microtiter plate (Greiner). Reaction mixtures were incubated for 1 hr at ambient temperature. […] After 16 hr incubation at ambient temperature plates were read using an AlphaQuest reader (Perkin Elmer).

[3] = molecular target: T2, Flt-3 (baculovirus expressed human Flt-3 kinase domain R571-S993) (Homo sapiens, UniProt P36888); experiment: flt-3 Luciferase-Coupled Chemiluminescent Kinase assay (LCCA); details: 5 μM ATP, 5 nM Flt-3; read-out: flt3 IC50
T2 construct: human Flt-3 kinase domain R571-S993; made in house
T2 sequence (P36888 571-993): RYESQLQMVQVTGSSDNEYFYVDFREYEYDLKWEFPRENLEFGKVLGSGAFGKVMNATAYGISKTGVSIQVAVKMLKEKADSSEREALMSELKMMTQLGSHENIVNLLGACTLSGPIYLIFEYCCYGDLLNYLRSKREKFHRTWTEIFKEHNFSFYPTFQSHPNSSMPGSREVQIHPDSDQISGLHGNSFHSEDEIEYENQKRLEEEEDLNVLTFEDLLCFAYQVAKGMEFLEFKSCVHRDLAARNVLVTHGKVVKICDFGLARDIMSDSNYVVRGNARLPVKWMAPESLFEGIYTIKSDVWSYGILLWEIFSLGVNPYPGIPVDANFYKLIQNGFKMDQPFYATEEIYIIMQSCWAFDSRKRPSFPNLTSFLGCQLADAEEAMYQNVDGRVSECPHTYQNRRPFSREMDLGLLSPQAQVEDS
Procedure: as §1, §2, §3
Biochemical activity for flt-3 was assessed using a Luciferase-Coupled Chemiluminescent Kinase assay (LCCA) format. Kinase activity was measured as the percent ATP remaining following the kinase reaction. Remaining ATP was detected by luciferase-luciferin-coupled chemiluminescence. […] The mixture is incubated at ambient temperature for 3 hours after which 20 uL luciferase-luciferin mix is added and the chemiluminescent signal read using a Wallac Victor^2 reader. […]

[4] = molecular target: T3, Flt-4 (baculovirus expressed human Flt-4 kinase domain D725-R1298) (Homo sapiens, UniProt P35916); experiment: flt-4 Alphascreen Tyrosine Kinase assay; details: 5 μM ATP, 1 nM Flt-4; read-out: flt4 IC50
T3 construct: human Flt-4 kinase domain D725-R1298; made in house
Procedure: as §1, §2, §3
Biochemical activity for flt-4 was assessed using an Alphascreen Tyrosine Kinase protocol. AlphaScreen™ (Perkin Elmer) technology is a proximity assay employing microparticles. […] Substrate phosphorylation was measured by addition of donor/acceptor beads by chemiluminescence following donor-acceptor bead complex formation. […] After 2-16 hr incubation at ambient temperature plates were read using an AlphaQuest reader (Perkin Elmer). IC50 values correlate well with those determined by radiometric assays.

Chain of c-Kit kinase (P10721 26-976): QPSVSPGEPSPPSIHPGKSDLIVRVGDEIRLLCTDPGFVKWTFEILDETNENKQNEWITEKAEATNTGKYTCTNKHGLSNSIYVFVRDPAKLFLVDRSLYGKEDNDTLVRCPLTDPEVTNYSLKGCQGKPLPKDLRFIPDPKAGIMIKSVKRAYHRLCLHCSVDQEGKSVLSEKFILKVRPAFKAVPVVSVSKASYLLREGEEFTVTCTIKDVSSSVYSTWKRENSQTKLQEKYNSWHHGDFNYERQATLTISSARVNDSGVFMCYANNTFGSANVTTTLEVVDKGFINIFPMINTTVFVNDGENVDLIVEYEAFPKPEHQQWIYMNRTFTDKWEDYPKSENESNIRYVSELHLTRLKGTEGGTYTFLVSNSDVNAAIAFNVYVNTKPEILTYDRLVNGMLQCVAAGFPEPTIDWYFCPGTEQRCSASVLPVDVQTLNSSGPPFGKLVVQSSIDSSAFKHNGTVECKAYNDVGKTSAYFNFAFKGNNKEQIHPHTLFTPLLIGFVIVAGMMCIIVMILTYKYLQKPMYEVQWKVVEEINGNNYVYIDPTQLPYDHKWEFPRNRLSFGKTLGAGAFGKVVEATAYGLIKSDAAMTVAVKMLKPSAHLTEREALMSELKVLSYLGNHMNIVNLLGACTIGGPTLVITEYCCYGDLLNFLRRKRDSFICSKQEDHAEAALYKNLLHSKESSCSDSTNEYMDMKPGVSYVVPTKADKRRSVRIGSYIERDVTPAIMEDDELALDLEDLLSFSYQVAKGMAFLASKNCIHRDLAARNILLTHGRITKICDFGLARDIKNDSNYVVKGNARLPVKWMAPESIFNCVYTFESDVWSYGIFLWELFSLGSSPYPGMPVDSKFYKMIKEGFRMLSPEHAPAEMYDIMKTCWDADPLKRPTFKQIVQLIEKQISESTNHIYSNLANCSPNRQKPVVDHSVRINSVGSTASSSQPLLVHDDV
T3 sequence (P35916 725-1298 isoform P35916-1): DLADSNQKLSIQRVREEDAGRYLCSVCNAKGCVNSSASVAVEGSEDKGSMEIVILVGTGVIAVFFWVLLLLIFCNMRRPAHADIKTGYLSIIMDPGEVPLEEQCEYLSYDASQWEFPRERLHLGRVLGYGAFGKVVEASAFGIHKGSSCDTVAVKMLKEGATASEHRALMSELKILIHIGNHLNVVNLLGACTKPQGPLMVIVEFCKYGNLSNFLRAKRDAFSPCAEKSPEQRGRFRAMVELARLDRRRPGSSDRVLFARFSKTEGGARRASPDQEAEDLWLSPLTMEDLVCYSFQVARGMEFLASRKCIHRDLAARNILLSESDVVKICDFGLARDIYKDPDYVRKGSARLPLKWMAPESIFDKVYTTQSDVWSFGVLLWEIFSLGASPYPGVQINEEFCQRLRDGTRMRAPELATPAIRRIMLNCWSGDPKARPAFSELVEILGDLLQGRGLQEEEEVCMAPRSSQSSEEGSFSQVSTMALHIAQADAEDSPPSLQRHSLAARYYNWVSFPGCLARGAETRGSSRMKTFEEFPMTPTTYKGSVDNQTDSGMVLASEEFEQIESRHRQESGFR
Chain of c-Met (baculovirus expressed human c-Met kinase domain P948-S1343) (P08581 1078-1345 limits assumed): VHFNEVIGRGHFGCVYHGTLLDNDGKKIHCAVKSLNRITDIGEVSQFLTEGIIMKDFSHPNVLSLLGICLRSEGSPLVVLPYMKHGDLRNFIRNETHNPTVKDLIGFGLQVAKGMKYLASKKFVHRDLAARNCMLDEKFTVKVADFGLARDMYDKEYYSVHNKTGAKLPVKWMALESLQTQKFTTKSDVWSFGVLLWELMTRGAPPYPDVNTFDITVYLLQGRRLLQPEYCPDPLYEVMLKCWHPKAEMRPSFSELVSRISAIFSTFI
T1 sequence (P35968 807-1356): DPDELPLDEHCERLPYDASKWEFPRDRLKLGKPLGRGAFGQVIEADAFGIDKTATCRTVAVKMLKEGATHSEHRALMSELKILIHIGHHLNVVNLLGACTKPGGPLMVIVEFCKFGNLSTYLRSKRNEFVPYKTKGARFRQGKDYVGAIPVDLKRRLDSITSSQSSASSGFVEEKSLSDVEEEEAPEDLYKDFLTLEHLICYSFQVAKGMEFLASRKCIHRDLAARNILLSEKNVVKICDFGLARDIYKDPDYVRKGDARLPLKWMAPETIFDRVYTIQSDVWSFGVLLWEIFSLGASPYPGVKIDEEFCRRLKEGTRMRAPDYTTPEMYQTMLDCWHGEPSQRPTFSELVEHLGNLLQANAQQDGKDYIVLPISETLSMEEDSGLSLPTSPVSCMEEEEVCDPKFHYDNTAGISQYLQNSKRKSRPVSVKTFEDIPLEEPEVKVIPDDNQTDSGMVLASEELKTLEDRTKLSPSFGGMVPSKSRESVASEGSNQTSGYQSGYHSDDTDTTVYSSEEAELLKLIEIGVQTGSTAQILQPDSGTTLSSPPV

pIC50 [1]: > 7.30 | pIC50 [2]: > 7.30 | pIC50 (c-Kit kinase): > 7.30 | pIC50 [3]: > 7.30 | pIC50 [4]: > 7.30
SMILES: COc1cc2c(Oc3ccc(NC(=O)C(=O)NCCc4ccc(F)cc4)cc3F)ccnc2cc1OCCCN1CCOCC1 [Entry 1, N-[3-fluoro-4-({6-(methyloxy)-7-[(3-morpholin-4-ylpropyl)oxy]quinolin-4-yl}oxy)phenyl]-N′-[2-(4-fluorophenyl)ethyl]ethanediamide]
